Results as given in ChEMBL document CHEMBL5365500, “Development and Antibacterial Properties of 4-[4-(Anilinomethyl)-3-phenylpyrazol-1-yl]benzoic Acid Derivatives as Fatty Acid Biosynthesis Inhibitors” (J Med Chem, 2023).
Converted amounts (≈) assume the structure as drawn. The source made the active and inactive calls. The rule behind the calls is not given here.

Legend:
Staphylococcus aureus [1] = test: Antimicrobial activity against methicilline-resistant Staphylococcus aureus ATCC 700699 persisters assessed as bacterial killing at 32 time of MIC concentration measured for every 2 hrs upto 8 hrs by Persisters time course assay; type: functional, organism-based
Staphylococcus aureus [2] = test: Antimicrobial activity against antibiotic-resistant Staphylococcus aureus ATCC BAA-2312 assessed as inhibition of visible growth measured after 20 to 24 hrs incubation by CLSI method; type: functional; details: time 20-24 hrs
Staphylococcus aureus [3] = test: Antimicrobial activity against Staphylococcus aureus ATCC 25923 assessed as inhibition of visible growth measured after 20 to 24 hrs incubation by CLSI method; type: functional; details: time 20-24 hrs
Staphylococcus aureus [4] = test: In vivo antimicrobial activity against Staphylococcus aureus USA300 infected in Caenorhabditis elegans AU37 nematodes assessed as viability of nematodes incubated for 5 days by susceptibility test; type: functional; details: USA300, 120 h, time 5 day
Staphylococcus aureus [5] = test: Antimicrobial activity against methicilline-resistant Staphylococcus aureus ATCC 700699 persisters assessed as reduction in initial persister concentration at 16 times of MIC concentration measured for 2 hrs by Persisters time course assay; type: functional, organism-based
[6] = tested on: Panel NCI-60 (60 carcinoma cell lines); test: Cytotoxicity against human panel NCI-60 (60 carcinoma cell lines)cells assessed as cell viability at 10 uM measured after 24 hrs by resazurin assay; type: functional, cell-based
Erythrocyte [7] = test: Hemolytic activity in sheep red blood cells assessed as hemolysis at 16 to 32 ug/ml incubated for 30 mins relative to control; type: toxicity, cell-based, Ovis aries; details: 0.5 h, dose 16-32 µg/ml
Staphylococcus aureus [8] = test: Antimicrobial activity against clinical isolate Staphylococcus aureus Smu57 assessed as inhibition of growth measured after 20 to 24 hrs incubation by CLSI method; type: functional; details: time 20-24 hrs
Cell membrane [9] = test: Induction of membrane permeability in Staphylococcus aureus ATCC 700699 assessed as increase in fluorescence at 0.5 to 2 times of MIC incubated for 15 mins measured for 1 hr by propidium iodide/real time fluorescence based flow cytometry; type: subcellular; details: time 75.0 min
Staphylococcus aureus [10] = test: In vivo antimicrobial activity against Staphylococcus aureus UAMS-1 infected in Caenorhabditis elegans AU37 nematodes assessed as viability of nematodes incubated for 5 days by susceptibility test; type: functional; details: UAMS-1, 120 h, time 5 day
Enterococcus faecium [11] = test: Antimicrobial activity against Enterococcus faecium […] assessed as inhibition of biofilm formation after 24 hrs incubation by Real-time monitoring method; type: functional
Staphylococcus aureus [12] = test: Antimicrobial activity against clinical isolate Staphylococcus aureus Smu109 assessed as inhibition of growth measured after 20 to 24 hrs incubation by CLSI method; type: functional; details: time 20-24 hrs
Staphylococcus aureus [13] = test: Resistance development in methicillin-sensitive Staphylococcus aureus ATCC 25923 assessed as fold increase in MIC at 0.5 times of MIC measured at 4 to 6 th passages by multistep resistance assay; type: functional
Cell membrane [14] = test: Induction of membrane permeability in Staphylococcus aureus ATCC 700699 assessed as increase in fluorescence at 8 times of MIC incubated for 15 mins measured for 1 hr by propidium iodide/real time fluorescence based flow cytometry; type: subcellular
Staphylococcus aureus [15] = test: Antimicrobial activity against clinical isolate Staphylococcus aureus Smu9 assessed as inhibition of growth measured after 20 to 24 hrs incubation by CLSI method; type: functional; details: time 20-24 hrs
Bacillus subtilis = test: Antimicrobial activity against antibiotic-resistant Bacillus subtilis ATCC 6623 assessed as inhibition of visible growth measured after 20 to 24 hrs incubation by CLSI method; type: functional; details: time 20-24 hrs
Enterococcus faecalis [16] = test: Antimicrobial activity against Enterococcus faecalis ATCC 29212 assessed as inhibition of biofilm formation by measuring prevention of turbidity after 24 hrs incubation by Real-time monitoring method; type: functional
Enterococcus faecalis [17] = test: Antimicrobial activity against antibiotic-susceptible Enterococcus faecalis ATCC 29212 assessed as eradication of biofilm measured after 24 hrs incubation by Calgary method; type: functional
Staphylococcus aureus [18] = test: Bactericidal activity in antibiotic-resistant Staphylococcus aureus ATCC 700699 assessed as reduction in viable cell count at 4 times of MIC measured upto 24 hrs by time kill assay; type: functional, organism-based
Staphylococcus aureus [19] = test: Antimicrobial activity against clinical isolate Staphylococcus aureus Smu81 assessed as inhibition of growth measured after 20 to 24 hrs incubation by CLSI method; type: functional; details: time 20-24 hrs
Staphylococcus aureus [20] = test: Antimicrobial activity against clinical isolate Staphylococcus aureus Smu21 assessed as inhibition of growth measured after 20 to 24 hrs incubation by CLSI method; type: functional; details: time 20-24 hrs
Staphylococcus aureus [21] = test: Antimicrobial activity against methicilline-resistant Staphylococcus aureus ATCC 700699 persisters assessed as reduction in initial persister concentration at 2 times of MIC concentration measured for 2 to 8 hrs by Persisters time course assay; type: functional, organism-based; details: time 2-8 hrs
Staphylococcus aureus [22] = test: Antimicrobial activity against antibiotic-resistant Staphylococcus aureus ATCC 33592 assessed as inhibition of visible growth measured after 20 to 24 hrs incubation by CLSI method; type: functional; details: time 20-24 hrs
Staphylococcus aureus [23] = test: Antimicrobial activity against Staphylococcus aureus UAB159 assessed as inhibition of growth measured after 20 to 24 hrs incubation by CLSI method; type: functional; details: time 20-24 hrs
Staphylococcus aureus [24] = test: Antimicrobial activity against Staphylococcus aureus ATCC 25923 assessed as inhibition of biofilm formation by measuring prevention of turbidity after 24 hrs incubation by Real-time monitoring method; type: functional
Staphylococcus aureus [25] = test: Antimicrobial activity against methicilline-resistant Staphylococcus aureus ATCC 700699 persisters assessed as reduction in initial persister concentration at 8 times of MIC concentration measured for 8 hrs by Persisters time course assay; type: functional
Staphylococcus aureus [26] = test: In vivo antimicrobial activity against Staphylococcus aureus Newman infected in Caenorhabditis elegans AU37 nematodes assessed as viability of nematodes incubated for 5 days by susceptibility test; type: functional; details: 120 h, time 5 day
Staphylococcus aureus [27] = test: Antimicrobial activity against antibiotic-resistant Staphylococcus aureus ATCC 33591 assessed as inhibition of visible growth measured after 20 to 24 hrs incubation by CLSI method; type: functional; details: time 20-24 hrs
Erythrocyte [28] = test: Hemolytic activity in sheep red blood cells assessed as hemolysis at 64 ug/ml incubated for 30 mins relative to control; type: toxicity, cell-based, Ovis aries; details: 0.5 h, at 64 µg/mL
Enterococcus faecalis [29] = test: Antimicrobial activity against antibiotic-susceptible Enterococcus faecalis ATCC 29212 assessed as inhibition of biofilm formation by measuring prevention of turbidity after 24 hrs incubation by Real-time monitoring method; type: functional
[30] = Toxicity in Caenorhabditis elegans AU37 assessed as survival at 4 ug/ml measured for 4 days; details: 96 h, dose 4 µg/ml, time 4 day
[31] = Toxicity in Caenorhabditis elegans AU37 assessed as survival at 20 ug/ml measured for 4 days; details: at 20 µg/mL, time 4 day
Staphylococcus aureus [32] = test: Antimicrobial activity against antibiotic-susceptible Staphylococcus aureus ATCC 25923 assessed as inhibition of biofilm formation by measuring prevention of turbidity after 24 hrs incubation by Real-time monitoring method; type: functional
Cell membrane [33] = test: Induction of membrane permeability in Staphylococcus aureus ATCC 700699 assessed as increase in fluorescence intensity at 4 times of MIC incubated for 15 mins measured for 1 hr by propidium iodide/real time fluorescence based flow cytometry Rvb = 3.5); details: time 75.0 min
HEK293 = test: Cytotoxicity against human HEK293 cells assessed as cell viability measured after 24 hrs by resazurin assay; type: toxicity, cell-based
Staphylococcus aureus [34] = test: Antimicrobial activity against methicilline-resistant Staphylococcus aureus ATCC 700699 persisters assessed as reduction in initial persister concentration at 16 times of MIC concentration measured for 6 hrs by Persisters time course assay; type: functional, organism-based
Cell membrane [35] = test: Induction of membrane permeability in Staphylococcus aureus ATCC 700699 assessed as increase in fluorescence intensity at 2 times of MIC incubated for 15 mins measured for 1 hr by propidium iodide/real time fluorescence based flow cytometry Rvb = 3.5); type: subcellular; details: time 75.0 min
Cell membrane [36] = test: Induction of membrane permeability in Staphylococcus aureus ATCC 700699 assessed as increase in fluorescence intensity at 1 times of MIC incubated for 15 mins measured for 1 hr by propidium iodide/real time fluorescence based flow cytometry Rvb = 3.5); details: time 75.0 min
Cell membrane [37] = test: Induction of membrane damage in Staphylococcus aureus ATCC 700699 assessed as cell surface damage at 1 to 4 times of MIC measured after 30 mins by Scanning electron microscopy; type: subcellular
Staphylococcus aureus [38] = test: Antimicrobial activity against antibiotic-susceptible Staphylococcus aureus ATCC 25923 assessed as inhibition of biofilm formation on plastic coverslips at 0.5 times of MIC measured after 24 hrs by electron microscopy; type: functional, organism-based
Enterococcus faecalis [39] = test: Antimicrobial activity against antibiotic-resistant Enterococcus faecalis ATCC 51299 assessed as inhibition of visible growth measured after 20 to 24 hrs incubation by CLSI method; type: functional; details: time 20-24 hrs
Staphylococcus aureus [40] = test: Antimicrobial activity against Staphylococcus aureus ATCC 25923 assessed as eradication of biofilm measured after 24 hrs incubation by Calgary method; type: functional
Enterococcus faecium [41] = test: Antimicrobial activity against antibiotic-resistant Enterococcus faecium ATCC 700221 assessed as inhibition of visible growth measured after 20 to 24 hrs incubation by CLSI method; type: functional; details: time 20-24 hrs
Staphylococcus aureus [42] = test: Antimicrobial activity against antibiotic-susceptible Staphylococcus aureus ATCC 25923 assessed as inhibition of biofilm formation after 24 hrs incubation by Real-time monitoring method; type: functional

SMILES | MIC (Staphylococcus aureus [2]) [µg/mL] | MIC (Staphylococcus aureus [3]) [µg/mL] | MIC (Staphylococcus aureus [4]) [µg/mL] | Activity [6] | Activity (Erythrocyte [7]) | MIC (Staphylococcus aureus [8]) [µg/mL] | Activity (Cell membrane [9]) | MIC (Staphylococcus aureus [10]) [µg/mL] | MBIC (Enterococcus faecium [11]) [µg/mL] | MIC (Staphylococcus aureus [12]) [µg/mL] | Activity (Cell membrane [14]) | MIC (Staphylococcus aureus [15]) [µg/mL] | MIC (Bacillus subtilis) [µg/mL] | MIC (Enterococcus faecalis [16]) [µg/mL] | MIC (Staphylococcus aureus [19]) [µg/mL] | MIC (Staphylococcus aureus [20]) [µg/mL] | Activity (Staphylococcus aureus [21]) | MIC (Staphylococcus aureus [22]) [µg/mL] | MIC (Staphylococcus aureus [23]) [µg/mL] | MIC (Staphylococcus aureus [24]) [µg/mL] | also measured
O=C(O)c1ccc(-n2cc(CNc3ccc(Br)c(C(F)(F)F)c3)c(-c3cccc(F)c3)n2)cc1 | 1 (≈ 1.87 µM) | 1 (≈ 1.87 µM) | 1 (≈ 1.87 µM) | inactive | Non-Toxic | 2 (≈ 3.74 µM) | inactive | 1 (≈ 1.87 µM) | 8 | 2 (≈ 3.74 µM) | inactive | 4 (≈ 7.49 µM) | 0.5 (≈ 0.936 µM) | 8 (≈ 15 µM) | 4 (≈ 7.49 µM) | 4 (≈ 7.49 µM) | inactive | 0.5 (≈ 0.936 µM) | 4 (≈ 7.49 µM) | 2 (≈ 3.74 µM) | Activity (Staphylococcus aureus [1]): Active; Activity (Staphylococcus aureus [5]): Active; fold change (FC) (Staphylococcus aureus [13]): 2; MBEC (Enterococcus faecalis [17]): 2 µg/mL; Activity (Staphylococcus aureus [18]): Active; log(activity) (Staphylococcus aureus [25]): 6; MIC (Staphylococcus aureus [26]): 1 µg/mL (≈ 1.87 µM); MIC (Staphylococcus aureus [27]): 0.5 µg/mL (≈ 0.936 µM); Activity (Erythrocyte [28]): < 10%
O=C(O)c1ccc(-n2cc(CNc3cc(Br)cc(C(F)(F)F)c3)c(-c3ccc(F)c(F)c3)n2)cc1 | 1 (≈ 1.81 µM) | 1 (≈ 1.81 µM) | 1 (≈ 1.81 µM) | inactive | Non-Toxic | 2 (≈ 3.62 µM) | inactive | 1 (≈ 1.81 µM) | 4 | 2 (≈ 3.62 µM) | inactive | 2 (≈ 3.62 µM) | 0.5 (≈ 0.905 µM) | 4 (≈ 7.24 µM) | 4 (≈ 7.24 µM) | 2 (≈ 3.62 µM) | inactive | 1 (≈ 1.81 µM) | 4 (≈ 7.24 µM) | 2 (≈ 3.62 µM) | MBBC (Enterococcus faecalis [29]): 8 µg/mL; Activity [30]: Non-Toxic; survival at 96 h, 20 ug/ml [31]: > 80%; MBBC (Staphylococcus aureus [32]): 8 µg/mL; Activity (Cell membrane [33]): 96.7%; IC50 (HEK293): 27 µg/mL (≈ 48.9 µM); Activity (Staphylococcus aureus [34]): Active; log(activity) (Staphylococcus aureus [25]): 6; Activity (Cell membrane [35]): 32.8%; Activity (Cell membrane [36]): 18.5%; MIC (Staphylococcus aureus [26]): 1 µg/mL (≈ 1.81 µM); MIC (Staphylococcus aureus [27]): 1 µg/mL (≈ 1.81 µM); Activity (Erythrocyte [28]): < 10%; Activity (Cell membrane [37]): Active; Activity (Staphylococcus aureus [38]): Active
CN[C@H](CC(C)C)C(=O)N[C@H]1C(=O)N[C@@H](CC(N)=O)C(=O)N[C@H]2C(=O)N[C@H]3C(=O)N[C@H](C(=O)N[C@H](C(=O)O)c4cc(O)cc(O)c4-c4cc3ccc4O)[C@H](O)c3ccc(c(Cl)c3)Oc3cc2cc(c3O[C@@H]2O[C@H](CO)[C@@H](O)[C@H](O)[C@H]2O[C@H]2C[C@](C)(N)[C@H](O)[C@H](C)O2)Oc2ccc(cc2Cl)[C@H]1O [VANCOMYCIN] | – | – | – | – | – | – | – | – | >16 | – | – | – | 0.25 (≈ 0.173 µM) | – | – | – | – | – | – | 8 (≈ 5.52 µM) | MIC (Enterococcus faecalis [39]): > 32 µg/mL; MBBC (Enterococcus faecalis [29]): >16 µg/mL; MBEC (Staphylococcus aureus [40]): >32 µg/mL; MBBC (Staphylococcus aureus [32]): >16 µg/mL; MIC (Enterococcus faecium [41]): > 32 µg/mL; MBIC (Staphylococcus aureus [42]): >16 µg/mL; Activity (Staphylococcus aureus [38]): Active
